“And” between values parts separate entries of the source, which are not always exact repeats. Identical values can stand only once. “Also recorded” adds a separate entry of the source.
Tests used:
[1] = system: intraocular pressure (IOP) of adult white rabbits; experiment: Salted Rabbit Test: IOP after topical 1% w/v suspension; format: in vivo; settings: for IOP change, individual rabbit (Rabbit No. 1-6): 1% w/v suspension, 3 drops
Protocol: In particular, an initial drop from the test formulation followed by two drops at one minute intervals are applied to one eye of each of six adult white rabbits that had been maintained ona diet containing 0.5% sodium. The treated eye was selected randomly, whereas, the fellow eye received placebo; the observer was masked. Results identified a small but significant reduction of intraocular pressure in the treated eye at 30, 60 and 120 minutes.
One drop, followed by two drops each at one minute intervals, was applied to one eye of normal adult white rabbits. Six rabbits were used in the experiment. The treated eye was selected randomly, whereas, the fellow eye received placebo. The observer was masked. The intraocular pressure (IOP) was measured with a Digilab Pneumotonometer, initially and every ten minutes for 120 minutes following instillation of the anti-glaucoma agent. A drop of local anesthetic was applied just prior to making the measurement.

carbonic anhydrase = experiment: in vitro carbonic anhydrase activity, simplified method of Maren; format: biochemical; set-up: averaged I50 (concentration of drug causing 50% inhibition of enzyme): unit not given here
Protocol: Water was added to the reaction vessel which was kept in a water bath at 0±0.25° C. The reaction cell was constantly purged with CO2 at a rate of 200 to 250 ml/min. Each reagent was added at a specified time and in a specified order. […] The time required for the reaction begins with the addition of carbonate buffer and was completed with the indicator changed from red to yellow. […] Reaction time was the time for the uncatalyzed reaction time. […] By varying the time before adding the carbonate buffer and then determining the reaction time, the equilibration time can be accurately determined. The reaction time was averaged over three determinations. […] (If two enzyme units are added, then the concentration of drug yielding a reaction time corresponding to the activity of one unit is taken as the I50). An enzyme unit (e.u.) was calculated from: [formula]

In the case of `CNS(=O)(=O)c1nnc(NC(C)=O)s1` [methyl acetazolamide, N-methyl-2-acetylamino-1,3,4-thiadiazole-5-sulfonamide], the “IOP change, individual rabbit (Rabbit No. 1-6)” value (shortened to “IOP change … (Rabbit No. 1-6)”) ([1]; 10 min) is reported as -4 mm Hg and -2 mm Hg and 0 mm Hg, the “IOP change … (Rabbit No. 1-6)” value ([1]; 20 min) is reported as -2 mm Hg and 0 mm Hg and -4 mm Hg and -3 mm Hg and 1 mm Hg and the “IOP change … (Rabbit No. 1-6)” value ([1]; 30 min) is reported as -3 mm Hg and -2 mm Hg and -1 mm Hg. For the same compound, the “IOP change … (Rabbit No. 1-6)” value ([1]; 40 min) was 0 mm Hg and -1 mm Hg, the “IOP change … (Rabbit No. 1-6)” value ([1]; 50 min) was -5 mm Hg and -2 mm Hg and -1 mm Hg and 0 mm Hg and the “IOP change … (Rabbit No. 1-6)” value ([1]; 60 min) was -3 mm Hg and 1 mm Hg and -2 mm Hg and -1 mm Hg. The “IOP change … (Rabbit No. 1-6)” value ([1]; 70 min) was -4 mm Hg and -2 mm Hg and 0 mm Hg and 2 mm Hg, the “IOP change … (Rabbit No. 1-6)” value ([1]; 80 min) was -3 mm Hg and -4 mm Hg and 1 mm Hg and 0 mm Hg and the “IOP change … (Rabbit No. 1-6)” value ([1]; 90 min) was -2 mm Hg and 1 mm Hg and -1 mm Hg and -4 mm Hg and 0 mm Hg and 3 mm Hg. The “IOP change … (Rabbit No. 1-6)” value ([1]; 100 min) was -4 mm Hg and 0 mm Hg and -3 mm Hg and -2 mm Hg, the “IOP change … (Rabbit No. 1-6)” value ([1]; 110 min) was -2 mm Hg and 0 mm Hg and 1 mm Hg and the “IOP change … (Rabbit No. 1-6)” value ([1]; 120 min) was -3 mm Hg and 0 mm Hg and -1 mm Hg. For the same compound, the “reduction of intraocular pressure after topical administration, in words” value ([1]; rabbit, eye drops) was “lowering of IOP was statistically significant at all time intervals; also recorded: able to reduce intraocular pressure”, the “in vitro carbonic anhydrase inhibition, in words” value (carbonic anhydrase) was “inactive in vitro” and the “activity relative to acetazolamide (ratio of I50)” value (carbonic anhydrase; 0.52/0.00914) was 1/60. For the same compound, the “averaged I50 (concentration of drug causing 50% inhibition of enzyme)” value (carbonic anhydrase; heparinized blood, 2 enzyme units, 0 C) was 0.520.
